From patent US20220348876A1, “METABOLISM GUIDES DEFINITIVE LINEAGE SPECIFICATION DURING ENDOTHELIAL TO HEMATOPOIETIC TRANSITION” (Amniotics AB, priority 2019, published 2022)

System: NSG mice
Test: NSG mice transplantation of DCA-treated HE cells
Format: in vivo
Conditions: week 8; text does not separate DCA from control
Protocol: Sorted human HE cells (350,000) were mixed with OP9-DL1 stroma (60,000) and subcultured for 3 days with or without DCA (3 mM) on Matrigel (16 μg/cm^2, Corning)-coated 12-well plates in HE medium^30. Between 100,000-150,000 cells from control or DCA samples were transplanted into sub-lethally irradiated (300 cGy) 8-week-old female NOD/Cg-Prkdc^scid Il2rg^tm1Wjl/SzJ mice (NSG, The Jackson Laboratory) together with 20,000 whole bone marrow support cells from C57Bl/6.SJL mice (CD45.1+/CD45.2+, in house breeding). Cells were transplanted in single cell solution in 250 μL PBS with 2% FBS through intravenous tail vein injection. Drinking water of transplanted NSG mice was supplemented with ciprofloxacin (125 mg/L, HEXAL) for 3 weeks after transplantation to prevent infection. Mice were housed in a controlled environment with 12-hour light-dark cycles with chow and water provided ad libitum. Experiments and animal care were performed in accordance with the Lund University Animal Ethical Committee.
Peripheral blood (PB) was collected from the tail vein into EDTA-coated microvette tubes (Sarstedt, Cat #20.1341.100). […]
Bone marrow was analyzed at the 12-week transplantation endpoint. […]

O=C(O)C(Cl)Cl [DCA, dichloroacetate]
engraftment: human CD45+ cells in the peripheral blood: around 1%
